Common to all, as to details: in vivo
The test system of series [1] is Homo sapiens. Kind of series: CL/F in HIV1 infected human at 100 mg, po administered twice daily. The class given is ADME, organism-based.
Series [2] is described as follows: Apparent elimination half life in HIV1 infected human at 100 mg, po administered twice daily. The class given is ADME, organism-based.
Series [3] deals with Homo sapiens. The series is described as follows: Tlag in HIV1 infected human at 100 mg, po administered twice daily. The class given is ADME, organism-based.
A short description of series [4]: Tmax in HIV1 infected human at 100 mg, po administered twice daily. The class given is ADME, organism-based.
The nature of series [5]: Cmax in HIV1 infected human at 100 mg, po administered twice daily. The class given is ADME, organism-based. Also noted: dose 100 mg, route oral.
Series [6] relates to Homo sapiens. The series is described as follows: AUC in HIV1 infected human at 100 mg, po administered twice daily. The class given is ADME, organism-based, Plasma.
Series [7] concerns Homo sapiens. Kind of series: Tlag in HIV1 infected human at 1000 mg, po administered twice daily. The class given is ADME, organism-based.
Series [8] can be described thus: Apparent elimination half life in HIV1 infected human at 1000 mg, po administered twice daily. The class given is ADME, organism-based.
Series [9] has as its system Homo sapiens. The series is described as follows: AUC in HIV1 infected human at 1000 mg, po administered twice daily. The class given is ADME, organism-based, Plasma.
Series [10] in a line: Tmax in HIV1 infected human at 1000 mg, po administered twice daily. The class given is ADME, organism-based.
The nature of series [11]: Cmax in HIV1 infected human at 1000 mg, po administered twice daily. The class given is ADME, organism-based. Also noted: dose 1000 mg, route oral.

Molecules are shown by their SMILES.

For orientation: CL/F means clearance divided by bioavailability, as obtained after extravascular dosing. A word on the half-life: it is the time needed for the level to fall by half in the phase considered. By Tmax is commonly meant the time from dosing to the highest level. Broadly, the Cmax is the maximum level reached in the sampled fluid or tissue. By AUC is commonly meant the area under the concentration-time curve, a measure of exposure. Low values mean low exposure, high ones high exposure.

For `CC(C)c1nc(CN(C)C(=O)N[C@H](C(=O)N[C@@H](Cc2ccccc2)C[C@H](O)[C@H](Cc2ccccc2)NC(=O)OCc2cncs2)C(C)C)cs1` [RITONAVIR], the CL/F with Homo sapiens [1] came out at 15.6 L/h. In [2], the half-life is 4.3 h. The compound further gave a Tlag in the series with Homo sapiens [3] of 0.25 h. The Tmax in [4] is 4 h. In addition, the maximum concentration (Cmax) in series [5] is 880 ng/mL. The AUC in the series on Homo sapiens [6] turned out to be 6399.9 ng·h/mL.

In the series with Homo sapiens [7], `CC(C)(C)NC(=O)[C@@H]1C[C@@H]2CCCC[C@@H]2CN1C[C@@H](O)[C@H](Cc1ccccc1)NC(=O)[C@H](CC(N)=O)NC(=O)c1ccc2ccccc2n1` [SAQUINAVIR] registered a Tlag of 0 h. Further, the half-life in series [8] was 3.7 h. In the series on Homo sapiens [9], this compound had an AUC of 17546.5 ng·h/mL. In series [10], the time to peak (Tmax) stood at 4 h. This compound had a Cmax in series [11] of 2620 ng/mL.

The values above are taken from ChEMBL document CHEMBL1143414, “Association of saquinavir plasma concentrations with side effects but not with antiretroviral outcome in patients infected with protease inhibitor-susceptible human immunodeficiency virus type 1” (Antimicrob Agents Chemother, 2007).
